Reference: patent publication US20250195474A1, “Piezo Inhibition for Wound Healing” (priority 2022, published 2025)
No end group written: not given here.

How the values were obtained:
human fibroblasts = assay: Human fibroblasts in 3D collagen gels with stretching; type: cell-based
Excerpt: To further confirm that human cluster 3 represented a pro-regenerative ADF population we utilized our in vitro collagen gel system. We first, FACS sorted human fibroblasts based on expression of cluster 3 markers including ROBO2, CD29, and SFRP2 and seeded them into 3D collagen gels (FIG. 42B). […] In contrast, stretching with P1 inhibition kept the fibroblasts in a more adipocyte-like phenotype, with high expression of PPARg and low expression of Collagen Type I, similar to fibroblasts in an unstretched state (FIG. 42B).
To determine if P1i may activate […] Wnt pathways to maintain cluster 3 in an adipocyte-like phenotype, we applied Wnt5a recombinant protein to the in vitro collagen gel system (FIG. 42C). […] In summary, P1i treatment may revert fibroblasts towards the mechanically naïve fibroblast pro-regenerative fibroblast population through the activation of canonical Wnt pathways and thereby preventing the transition to pro-scarring phenotypes defined by CJUN and VCAM1 expression.

[1] = system: human foreskin xenograft wounds; assay: CODEX analysis of human xenograft wounds at POD 14; type: in vivo
Excerpt: To spatially phenotype the pig specimens, we used Co-Detection by Indexing (CODEX), a novel assay in which markers are labeled with oligonucleotide-conjugated antibodies and iteratively imaged between cyclic additions and washouts of dye-labeled oligonucleotides. A custom CODEX panel was designed to assess wound cells within the tissue see Table 1). In brief, primary antibodies were individually barcoded and validated using the commercial supplier's protocols. OCT for mouse or paraffin blocks for human xenograft (n=3 per group) were sectioned at 8 μm thickness onto coverslips for CODEX antibody staining. Antigens were retrieved by standard citrate-EDTA processing prior to addition of CODEX antibodies. Using a CODEX-integrated Keyence BZ-X instrument (Akoya Biosciences) image acquisition was then performed. Using software from Akoya Biosciences the raw images were process, with cell segmentation, and rendering.
The CODEX was visualized using Akoya Biosciences Multiplex Analysis Viewer (MAV) in ImageJ. The resulting .fcs files were then concatenated in FlowJo and imported into the Monocle3 and STvEA R packages for further analysis. After debris removal, the processed UMAP manifold was analyzed through Monocle3 with a post-manifold threshold of >10,000 cells per cluster. Analysis of the protein staining patterns was then used to assign cell types. The cell interactions were then inferred using STvEA for cell types at >2.5% of total abundance at k=20 nearest neighbors to quantify cell spatial interactions, and differential interaction maps were generated using graph scores.
While scRNA-seq of human xenografts investigates human fibroblast subpopulations at a transcriptomic level, we further utilized CODEX to analyze spatially defined protein expression and cellular organization (FIG. 13A; markers shown in Table 1 right column). Specifically, we compared the spatial microenvironment of PBS, P1i, and unwounded skin at POD 14. […]

human adipocytes [2] = assay: Human adipocyte-populated collagen I hydrogels with or without mechanical stretch; conditions: 10% equibiaxial strain, 7 days
TRPC1 = TRPC1 (Homo sapiens, UniProt P48995); conditions: cited from earlier work
Sequence of TRPC1 (P48995 whole entry, species assumed): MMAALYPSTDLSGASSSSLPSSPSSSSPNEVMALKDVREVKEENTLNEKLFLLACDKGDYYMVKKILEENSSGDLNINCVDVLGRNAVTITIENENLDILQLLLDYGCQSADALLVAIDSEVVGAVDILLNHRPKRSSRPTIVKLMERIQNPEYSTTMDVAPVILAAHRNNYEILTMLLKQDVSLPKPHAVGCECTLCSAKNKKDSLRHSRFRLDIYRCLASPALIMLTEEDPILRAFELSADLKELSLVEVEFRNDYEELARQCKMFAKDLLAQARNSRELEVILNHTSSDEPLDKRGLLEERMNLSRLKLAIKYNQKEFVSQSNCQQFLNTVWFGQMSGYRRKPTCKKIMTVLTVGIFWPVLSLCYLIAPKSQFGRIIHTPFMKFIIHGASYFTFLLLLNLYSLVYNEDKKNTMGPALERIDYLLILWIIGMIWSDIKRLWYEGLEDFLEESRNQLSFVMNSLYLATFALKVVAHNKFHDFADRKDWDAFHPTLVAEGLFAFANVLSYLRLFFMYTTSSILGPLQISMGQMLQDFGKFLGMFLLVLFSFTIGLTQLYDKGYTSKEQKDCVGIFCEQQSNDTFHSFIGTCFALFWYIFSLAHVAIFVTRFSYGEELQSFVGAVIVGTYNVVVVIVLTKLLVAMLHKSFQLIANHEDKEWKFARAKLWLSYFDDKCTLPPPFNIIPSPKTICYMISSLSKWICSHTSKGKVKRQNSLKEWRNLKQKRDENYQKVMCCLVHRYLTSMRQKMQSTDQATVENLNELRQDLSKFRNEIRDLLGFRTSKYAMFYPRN

human adipocytes [3] = assay: Calcium imaging of hydrogel-bound adipocytes (Fluo-4 AM); type: cell-based; conditions: stretched human adipocytes
Excerpt: Calcium imaging was used to determine in vitro Ca^2+ flow in hydrogel-bound adipocytes with or without mechanical strain and with or without Piezo1 inhibitor treatment. A Fluo-4, AM cell permeant kit (ThermoFisher, Cat: F-14201) was used per the manufacturer's instructions. […] Imagej was used for image quantification.

wounds = assay: Visium spatial transcriptomic analysis of wounds; type: in vivo, mouse
Description: (§1) Wound specimens were rapidly harvested and flash frozen in OCT. Using the Visium Tissue Optimization Slide and Reagent Kit, permeabilization time was optimized at a thickness at 10 μm per section and 37 minutes for mouse tissue. Following cryo-sectioning at −20 degrees onto gene expression slides the expression slide and reagent kit was used to produce sequencing libraries. The libraries were then sequences using NextSeq (Illumina). Following demultiplication the raw FASTQ files and histology images were processed by sample with the Space Ranger software for genome alignment. The raw spaceranger output files for each sample was then read into a Seurat class object in R using Seurat's Load10× function. Data was normalized using the SCT transform with default parameters. To ascertain the integration of our scRNAseq and Visium spatial analysis we employed the FindTransferAnchors( ) function from Seurat, which allowed the alignment of data using the two datasets. This cross-platform linkage is performed serially in an unconstrained and constrained fashion.

existing scars = assay: Visium spatial transcriptomic analysis of treated existing scars; type: in vivo, mouse
Description: as §1
To further analyze the spatial gene expression following scar rescue, the Visium platform was applied to scars treated with P1i or PBS at POD 30, 75, and 120 (FIG. 9A). Similar to analysis of acute wound healing, the epidermal, dermal, and hypodermal layers were easily elucidated from the spatial transcriptomic analysis in scars at POD 60 (FIG. 9B). Furthermore, the expected cell types including fibroblasts, immune, epithelial, and adipocytes were identified by spatial expression of representative genes (FIG. 36A).

GsMTx4 (GCLEFWWKCNPNDDKCCRPKLKCSKLFKLCNFSF; ends and bridges not checked; cysteine pairing not given here; UniProt Q7YT39 47-80, looked up) [P1i]
phenotype of human fibroblasts (PPARg, Collagen Type 1) (human fibroblasts): a more adipocyte like phenotype with high expression of PPARg and low expression of Collagen Type 1 | interactions between fibroblasts and adipocytes ([1]; POD 14): PBS-treated wounds showed broadly enriched interactions between fibroblasts and adipocytes compared to P1i-treated wounds | interactions of adipocytes 4 ([1]; POD 14): strong crosstalk between adipocytes 4 and epithelial cells | relative proportions of CODEX defined adipocyte clusters ([1]; POD 14, vs PBS, p<0.05): fewer of the adipocyte 1 subtype and more of the adipocyte 4 subtype | stretch-induced hypertrophy of human adipocytes (human adipocytes [2]): reversed | block of TRPC1 (TRPC1): blocks | calcium staining with stretching (human adipocytes [3]): decreased | differential interaction maps (Visium) (wounds; POD 14): strong interactions between adipocytes and fibroblasts | fibroblast scRNA-seq cluster 0 (mechanically sensitive) spatial enrichment (wounds; POD 14): highly enriched in PBS-treated POD 14 wounds compared to P1i or P2i treated wounds | fibroblast scRNA-seq cluster 5 (mechanically naive) spatial presence (wounds; POD 14): observed | spatial expression of Piezo1, Piezo2, Ptk2 and Yap1 (wounds; POD 14): appeared mostly at the basal region | spatially variable features (gene expression) (wounds; POD 14): high expression of markers associated with the epidermis including Krt1 and Krt14 | adipocyte and epithelial cells in the spatial environment (wounds; POD 14, vs PBS): enriched | spatially identified adipocytes (existing scars; POD 60, 105 and 150, vs PBS): greater in number | differential interaction maps (Visium) (existing scars; existing scars): larger number of interactions between adipocytes and epithelial cells | differentially expressed genes during scar rescue (existing scars; existing scars): high expression of genes associated with the epidermis | spatial expression of Piezo1, Piezo2, Yap1 and Ptk2 (existing scars; existing scars, all timepoints): observed mostly at the basal aspects of the wounds
